According to patent US9970037B2, “Methods and materials for making simvastatin and related compounds” (The Regents of the University of California, priority 2006, dated 2018):
Several values for one entry are separate records, joined by “and”; a condition that tells them apart may be missing. Identical values can stand only once.

Experiments:
[1] = system: E. coli BL21(DE3)/pAW31; assay: Whole cell biocatalysis with E. coli overexpressing LovD; format: cell-based, Escherichia coli
Method: The BL21(DE3)/pAW31 overexpression strain was grown in a shake flask (200 mL) to an OD600 of 1.0, at which time 1 mM IPTG, 0.8 mM monacolin J and 4 mM of either benzoyl-SNAC or benzoyl-SMTG were added to the culture. Expression of LovD and bioconversion was performed at 18° C. The culture was extracted and analyzed for the formation of 8-benzoyl-monacolin J. When supplemented with benzoyl-SNAC, 84% conversion of monacolin J was detected within 20 hours post-induction. The product was lactonized and purified by a single silica-gel chromatography step. The NMR spectra confirmed the regioselective benzoylation of the C8 hydroxyl group as the diagnostic H8 multiplet is shifted downfield to δ 5.61.
Fermentation conditions: 500 mL culture with LB media with 30 mg/L kanamycin. At OD600 of 1.0, cells were concentrated to a final OD600 of 5.0 and induced with 1 mM IPTG. Substrates monacolin J and α-dimethylbutyryl-SNAC were added to a final concentration of 1 mM and 4 mM. At different time points, culture samples were collected, centrifuged, filtered and injected on to HPLC (20 μL). Extraction conditions: When maximum conversion was reached, the broth was acidified to pH of 2.0, extracted with ethyl acetate, dried and redissolved in toluene.
(§1) Whole-cell catalytic synthesis of simvastatin acid from MJ acid and DMB-S-MMP were performed as described (see, e.g., Xie et al., (2007) Appl Environ Microbiol 73: 2054-2060). The E. coli BL21(DE3)/pAW31 and YT2/pAW31 strains were cultured side-by-side for comparison. A single colony of the freshly transformed strains was used to inoculate a 5 mL LB culture supplemented with 35 mg/L kanamycin and grown overnight at 37° C. The next morning, 100 μL of the overnight culture was inoculated into 50 mL cultures containing LB broth, F1 minimal medium and F1 medium supplemented with 0.15 mg/L biotin. Growth rates were monitored by periodically measuring the OD600 reading. When OD600 reached ˜0.5, 100 μM IPTG was added to the culture and expression of LovD was performed at 20° C. for 16 hours. To mimic high density fermentation conditions, the cells were concentrated 10-fold before addition of substrates. Typically, a 14 mL aliquot of the culture was transferred to a 15 mL centrifuge tube and the cells were collected by centrifugation (4° C., 4000 g, 10 minutes). The cell pellet was gently resuspended in 1316 μl of the supernatant, followed by addition of 84 μl of a MJ acid stock solution (250 mM in H2O) (final concentration 15 mM). The concentrated culture was then separated into seven 200 μL samples and 1.2 μL of pure DMB-S-MMP was added to each sample (final concentration ˜25 mM). The culture was then shaken at 300 rpm at room temperature. At each time point, a total extraction was performed by adding 10 μL 20% SDS to lyse the cells, followed by liquid-liquid extraction with 500 μL EA/1% AcOH. The organic phase was removed, evaporated, and redissolved in 50 μL ACN for HPLC analysis. For the BL21(DE3) sample, an additional 1.2 μL aliquot of DMB-S-MMP was added after 12 hours to replenish the hydrolyzed substrates.
The E. coli BL21(DE3)/pAW31 strain was grown in LB medium at 37° C. to an OD600 of 0.5, at which time 100 μM IPTG was added to the culture and expression was performed at RT for 16 hours. A 10 ml culture was transferred to a 15 mL centrifuge tube. The cells were collected by centrifugation (4000 g, 10 minutes). The cell pellet was resuspended in 957 μl of the supernatant. The pH was adjusted to pH 7.9 with 1.0 N NaOH, followed by addition of 33 μl 450 mM MJ (final concentration 15 mM) and 6 μl pure DMB-S-MMP (final concentration ˜25 mM). The culture was then shaken at 300 rpm at room temperature. At each time point, a 4 μL aliquot was removed from the reaction mixture, quenched in 300 μL ethyl acetate containing 1% TFA.

[2] = system: YT2/pAW31; assay: Whole cell biocatalysis with ΔbioH E. coli overexpressing LovD; format: cell-based, Escherichia coli; conditions: 15 mM MJ acid, 25 mM DMB-S-MMP, less than 12 hours
Method: as §1, with “The culture was then shaken at 300 rpm at room temperature. At each time point, a total extraction was performed by adding 10 μL 20% SDS to lyse the cells, followed by liquid-liquid extraction with 500 μL EA/1% AcOH. The organic phase was removed, evaporated, and redissolved in 50 μL ACN for HPLC analysis. For the BL21(DE3) sample, an additional 1.2 μL aliquot of DMB-S-MMP was added after 12 hours to replenish the hydrolyzed substrates.” left out

[3] = target: T1, LovD (Aspergillus terreus, UniProt Q9Y7D1); conditions: label = product formed
T1 sequence (Q9Y7D1 1-413): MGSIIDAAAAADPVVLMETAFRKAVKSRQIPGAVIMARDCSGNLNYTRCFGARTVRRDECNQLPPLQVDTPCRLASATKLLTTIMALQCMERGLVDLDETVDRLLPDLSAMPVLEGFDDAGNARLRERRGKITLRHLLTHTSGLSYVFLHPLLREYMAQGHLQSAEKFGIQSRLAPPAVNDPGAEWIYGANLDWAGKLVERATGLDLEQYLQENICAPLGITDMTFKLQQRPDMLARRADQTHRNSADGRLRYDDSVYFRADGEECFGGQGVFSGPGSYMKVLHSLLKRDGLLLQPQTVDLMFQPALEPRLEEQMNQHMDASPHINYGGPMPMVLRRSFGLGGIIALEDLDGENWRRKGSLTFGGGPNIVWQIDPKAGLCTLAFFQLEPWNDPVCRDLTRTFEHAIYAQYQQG
Method: Assay conditions: 1 mM monacolin J, 10 mM acyl-SNAC, 100 uM LovD, 50 mM HEPES, pH 7.9, 25 degrees C., 6 hrs.

[4] = system: E. coli; assay: Whole-cell based hydrolysis / stability of thioester in E. coli cultures; design: species or system Escherichia coli; conditions: BL21(DE3)/pAW31 culture, 18° C., 24 hours
Method: The selected 57 mutants from the Keio collection together with BW25113, BL21(DE3) and BL21(DE3)/pAW31 were grown to saturation in a 96-well deep well plate in 1 mL LB media at 37° C. Neat DMB-S-MMP (5 μL) was added to each culture with a final concentration of 20 mM. […] The organic phase was dried, redissolved in 20 μL acetonitrile (CH3CN), and 1 μL was spotted on a TLC plate (silica gel 60 F254). The TLC plates were developed with 20% EA in hexane and visualized with iodine.
Analysis of the compounds were also performed with HPLC using an analytical C18 column (Alltech Apollo 5 u, 150 mm×4.6 mm); linear gradient: 60% CH3CN in water (0.1% trifluoroacetic acid [TFA]) to 95% CH3CN in water (0.1% TFA) over 5 min, 95% CH3CN in water (0.1% TFA) for 10 minutes, with a flow rate of 1 mL/min. HPLC retention times (tR) were as follows: MJ lactone form: 3.40 min; DMB-S-MPA: 3.82 min; DMB-S-MMP: 6.80 min; simvastatin lactone form: 8.45 min. Both MJ and simvastatin acids were lactonized before HPLC analysis.
The mutants, wild type […] and BL21(DE3) were grown to saturation in LB broth in a 96-well plate. […] The cultures were acidified, extracted with ethyl acetate, and the organic phases were analyzed by thin layer chromatography (TLC) using a mobile phase (20% ethyl acetate in hexane) that enabled separation of DMB-S-MMP and DMB-S-MPA (FIG. 14A). […]

[5] = substrate: CCC(C)(C)C(=O)SCCC(=O)OC; assay: LovD transacylation assay: acyl transfer from acyl thioester to C8 hydroxyl of monacolin J, HPLC; format: biochemical, Aspergillus terreus; conditions: other: monacolin J fixed at 2 mM; DMB-S-MMP 0.2-10 mM, 5% DMSO; pH 7.9
Method: We first examined if an acyl-CoA can be used as substrate for the transacylation reaction. The uninterrupted gene of LovD was amplified from A. terreus genomic DNA using splice by overlap extension PCR and was inserted into the pET28a expression vector. Overexpression of soluble, N-terminal 6×His fusion LovD was performed in E. coli strain BL21(DE3)/pAW31. LovD was purified using Nickel-NTA affinity column to homogeneity (final yield˜40 mg/L). The substrate monacolin J (1 mM) was prepared through the LiOH hydrolysis of lovastatin and was added to a reaction mixture containing pure LovD (10 μM) and butyryl-CoA (4 mM), which is a commercially available acyl-CoA that best mimics the natural α-methylbutyrate side chain. The reaction mixture was incubated at room temperature, extracted with ethyl acetate and analyzed by HPLC and LC-MS (FIG. 5).
We assayed the tolerance of LovD towards different acyl substituents by performing the transacylation assay with various commercially available acyl-CoAs (Table 1A). […]
Expression and purification of LovD has been previously described in detail (see, e.g., Xie et al., 2006, Chem Biol 13: 1161-1169). […] The initial velocities (ki) of the acyl substrates were determined with 10 μM LovD, 1 mM monacolin J and 4 mM of the thioester. […] The percent conversion of monacolin J to simvastatin was determined by HPLC analysis (C18). […]

[6] = substrate: CC[C@H](C)C(=O)O[C@H]1C[C@@H](C)C=C2C=C[C@H](C)[C@H](CC[C@@H]3C[C@@H](O)CC(=O)O3)[C@H]21; assay: LovD catalyzed hydrolysis of lovastatin / simvastatin to monacolin J, HPLC; format: biochemical, Aspergillus terreus; conditions: other: statin as the only substrate; pH 7.9; 25.0 °C
Method: FIG. 5. […] (B) Conversion as a function of time for (⋄) butyryl-CoA (♦) butyryl-SNAC, (▪) butyryl-SMTG. The apparent kcat values reported throughout the text are initial turnover rates in the linear range. (C) Michaelis-Menten plot of LovD catalyzed hydrolysis of lovastatin to monacolin J. The reaction progress is monitored by HPLC. kcat: 0.21±0.01 min^−1; Km: 0.56±0.05 mM.
As shown in FIG. 5A (trace a), 87% conversion of monacolin J to 4 was observed after 10 hours using butyryl-CoA as an acyl donor. […] The observed 87% conversion is likely approaching equilibrium as evident in FIG. 5B. To examine the biochemical nature of the equilibrium conversion, we assayed whether LovD also catalyzes the reverse, hydrolysis reaction.

CCC(C)(C)C(=O)SCCC(=O)OC [DMB-S-MMP, α-dimethylbutyryl-S-methyl-mercaptopropionate]
conversion of monacolin J to simvastatin, whole cell ([1]; 15 mM monacolin J, 25 mM DMB-S-MMP, cells concentrated 10×, room temperature, 24 hours): 99% and > 99%
conversion of MJ acid to simvastatin acid, whole cell [2]: > 99%

CCC(C)(C)C(=O)OC1CC(O)C=C2C=CC(C)C(CCC(O)CC(O)CC(=O)O)C21 (centres unmarked) [huvastatin]
apparent turnover rate for synthesis from tetra-ol 7 using the corresponding acyl-thioester [3]: 0.03 min⁻¹

COC(=O)CSC(=O)c1ccccc1 [benzoyl-SMTG]
stability of acyl donor in E. coli culture [4]: rapidly degraded
conversion of monacolin J (benzoylation) in vivo ([1]; 0.8 mM monacolin J, 4 mM acyl donor, 18° C., within 20 hours post-induction): 40%

B1: LovD (Aspergillus terreus) (protein)
chain: MGSIIDAAAAADPVVLMETAFRKAVKSRQIPGAVIMARDCSGNLNYTRCFGARTVRRDECNQLPPLQVDTPCRLASATKLLTTIMALQCMERGLVDLDETVDRLLPDLSAMPVLEGFDDAGNARLRERRGKITLRHLLTHTSGLSYVFLHPLLREYMAQGHLQSAEKFGIQSRLAPPAVNDPGAEWIYGANLDWAGKLVERATGLDLEQYLQENICAPLGITDMTFKLQQRPDMLARRADQTHRNSADGRLRYDDSVYFRADGEECFGGQGVFSGPGSYMKVLHSLLKRDGLLLQPQTVDLMFQPALEPRLEEQMNQHMDASPHINYGGPMPMVLRRSFGLGGIIALEDLDGENWRRKGSLTFGGGPNIVWQIDPKAGLCTLAFFQLEPWNDPVCRDLTRTFEHAIYAQYQQG
notes: 6xHis (N); made in house; host or cells: E. coli BL21(DE3)/pAW31 (pET28a)
Km [5]: 670 ± 40 µM
Km [6]: 560 ± 50 µM
kcat [6]: 0.0035 ± 0.00017 s⁻¹
